Consider 14 molecules from US11413291B2, “Pesticidally active heterocyclic derivatives with sulfur containing substituents” (SYNGENTA PARTICIPATIONS AG, priority 2017, dated 2022).

As a reminder, the mortality is the share of the test organisms that died.

Common to all, as to assay type: in vivo
In one experiment the test system is Spodoptera littoralis. As to the kind of experiment: Example B1: Spodoptera littoralis, sprayed cotton leaf discs. Conditions: foliar, 72 h, application rate 200 ppm, L1 larvae, 3 days after infestation. As to the method: Cotton leaf discs were placed onto agar in 24-well microtiter plates and sprayed with aqueous test solutions prepared from 10′000 ppm DMSO stock solutions. After drying the leaf discs were infested with five L1 larvae. The samples were assessed for mortality, anti-feeding effect, and growth inhibition in comparison to untreated samples 3 days after infestation. Control of Spodoptera littoralis by a test sample is given when at least one of the categories mortality, anti-feedant effect, and growth inhibition is higher than the untreated sample.

Another experiment relates to Plutella xylostella. Description: Example B3: Plutella xylostella, artificial diet. Conditions: 120 h, application rate 200 ppm, L2 larvae, 5 days after infestation, read-out: effect in at least one of the two categories (mortality or growth inhibition). The protocol: 24-well microtiter plates with artificial diet were treated with aqueous test solutions prepared from 10,000 ppm DMSO stock solutions by pipetting. After drying, the plates were infested with L2 larvae (10 to 15 per well). The samples were assessed for mortality and growth inhibition in comparison to untreated samples 5 days after infestation.

In a further experiment the test system is Diabrotica balteata. As to the kind of experiment: Example B4: Diabrotica balteata, sprayed maize sprouts. The following applies: 96 h, application rate 200 ppm, L2 larvae, 4 days after infestation, read-out: effect in at least one of the two categories (mortality or growth inhibition). As to the method: Maize sprouts placed onto an agar layer in 24-well microtiter plates were treated with aqueous test solutions prepared from 10,000 ppm DMSO stock solutions by spraying. After drying, the plates were infested with L2 larvae (6 to 10 per well). The samples were assessed for mortality and growth inhibition in comparison to untreated samples 4 days after infestation.

In experiment [1] the test system is Myzus persicae. Description: Example B5: Myzus persicae feeding/contact, sprayed sunflower leaf discs. The following applies: foliar; for mortality at 200 ppm: Myzus persicae, 144 h, application rate 200 ppm, mixed ages, 6 days after infestation; for mortality at 12.5 ppm: Myzus persicae (B5), concentration 12.5 ppm. As to the method: Sunflower leaf discs were placed onto agar in a 24-well microtiter plate and sprayed with aqueous test solutions prepared from 10,000 ppm DMSO stock solutions. After drying, the leaf discs were infested with an aphid population of mixed ages. The samples were assessed for mortality 6 days after infestation.

Experiment [2] relates to Myzus persicae. As to the kind of experiment: Example B6: Myzus persicae systemic, pea seedling roots in test solution. The following applies: for mortality at 6 ppm: Myzus persicae (B6), concentration 6 ppm; for mortality at 24 ppm: Myzus persicae, 144 h, test rate 24 ppm, mixed ages, 6 days. As to the method:
Roots of pea seedlings infested with an aphid population of mixed ages were placed directly into aqueous test solutions prepared from 10,000 DMSO stock solutions. The samples were assessed for mortality 6 days after placing seedlings into test solutions.

In a further experiment the test system is Bemisia tabaci. Description: Example B7: Bemisia tabaci, sprayed cotton leaf discs. Conditions: foliar, 144 h, application rate 200 ppm, adult white flies, 6 days after incubation. As to the method:
Cotton leaf discs were placed on agar in 24-well microtiter plates and sprayed with aqueous test solutions prepared from 10,000 ppm DMSO stock solutions. After drying the leaf discs were infested with adult white flies. The samples were checked for mortality 6 days after incubation.

In another experiment the test system is Euschistus heros. As to the kind of experiment: Example B8: Euschistus heros, sprayed soybean leaves. The following applies: for mortality at 0.8 ppm: Euschistus heros (B8), concentration 0.8 ppm; for percent effect (mortality or growth inhibition) at 200 ppm: Euschistus heros, 120 h, application rate 200 ppm, N2 nymphs, 5 days after infestation, read-out: effect in at least one of the two categories (mortality or growth inhibition). The protocol:
Soybean leaves on agar in 24-well microtiter plates were sprayed with aqueous test solutions prepared from 10,000 ppm DMSO stock solutions. After drying the leaves were infested with N2 nymphs. The samples were assessed for mortality and growth inhibition in comparison to untreated samples 5 days after infestation.

In another experiment the test system is Tetranychus urticae. As to the kind of experiment: Example B10: Tetranychus urticae, sprayed bean leaf discs. The following applies: foliar, 192 h, application rate 200 ppm, mixed population (mobile stages), 8 days after infestation. The protocol:
Bean leaf discs on agar in 24-well microtiter plates were sprayed with aqueous test solutions prepared from 10,000 ppm DMSO stock solutions. After drying the leaf discs were infested with a mite population of mixed ages. The samples were assessed for mortality on mixed population (mobile stages) 8 days after infestation.

The structures appear in SMILES notation.

As to `CCS(=O)(=O)c1cc(C(C)(C)C#N)cnc1-c1cn2cnc(C(F)(F)F)cc2n1` [Compound P1, 2-[5-ethylsulfonyl-6-[7-(trifluoromethyl)imidazo[1,2-c]pyrimidin-2-yl]-3-pyridyl]-2-methyl-propanenitrile], the percent control (mortality, anti-feedant effect or growth inhibition) at 200 ppm in the experiment with Spodoptera littoralis is ≥ 80%. Further, the percent effect (mortality or growth inhibition) at 200 ppm in the experiment on Plutella xylostella, in the experiment with Diabrotica balteata and in the experiment on Euschistus heros was ≥ 80% each time. Also, the mortality at 200 ppm with Myzus persicae [1], in the experiment on Bemisia tabaci and with Tetranychus urticae was ≥ 80% throughout. Further, the mortality at 12.5 ppm with Myzus persicae [1] worked out at 100%. The molecule also returned a mortality at 6 ppm in the experiment on Myzus persicae [2] of 100%. In addition, in the experiment on Myzus persicae [2], the mortality at 24 ppm was ≥ 80%. Besides, the mortality at 0.8 ppm in the experiment on Euschistus heros stood at 100%.
On to `CCS(=O)(=O)c1cc(C(C)(C)C#N)cnc1-n1cc2cnc(C(F)(F)F)cc2n1` [Compound P2, 2-[5-ethylsulfonyl-6-[6-(trifluoromethyl)pyrazolo[4,3-c]pyridin-2-yl]-3-pyridyl]-2-methyl-propanenitrile], for which the percent control (mortality, anti-feedant effect or growth inhibition) at 200 ppm in the experiment with Spodoptera littoralis is ≥ 80%. Further, the percent effect (mortality or growth inhibition) at 200 ppm with Plutella xylostella, with Diabrotica balteata and in the experiment with Euschistus heros was ≥ 80% each time. The mortality at 200 ppm with Myzus persicae [1] and in the experiment on Bemisia tabaci was ≥ 80% in each case.
`CCS(=O)(=O)c1cc(C(C)(C)C#N)cnc1-c1cn2ccc(SC(F)F)cc2n1` [Compound P5, 2-[6-[7-(difluoromethylsulfanyl)imidazo[1,2-a]pyridin-2-yl]-5-ethylsulfonyl-3-pyridyl]-2-methyl-propanenitrile]: the percent control (mortality, anti-feedant effect or growth inhibition) at 200 ppm in the experiment on Spodoptera littoralis was ≥ 80%. Moreover, the percent effect (mortality or growth inhibition) at 200 ppm in the experiment with Diabrotica balteata was ≥ 80%. The mortality at 200 ppm in the experiment on Myzus persicae [1] and in the experiment with Bemisia tabaci was ≥ 80% throughout.
Consider `CCS(=O)(=O)c1cc(C(C)(C)C#N)cnc1-c1cn2ncc(C(F)(F)F)cc2n1` [Compound P8, 2-[5-ethylsulfonyl-6-[7-(trifluoromethyl)imidazo[1,2-b]pyridazin-2-yl]-3-pyridyl]-2-methyl-propanenitrile], for which, in the experiment on Spodoptera littoralis, the percent control (mortality, anti-feedant effect or growth inhibition) at 200 ppm was ≥ 80%. The percent effect (mortality or growth inhibition) at 200 ppm in the experiment on Plutella xylostella, in the experiment with Diabrotica balteata and with Euschistus heros was ≥ 80% each time. The mortality at 200 ppm in the experiment with Myzus persicae [1] and with Bemisia tabaci was ≥ 80% each time. Besides, in the experiment on Myzus persicae [2], the mortality at 24 ppm was ≥ 80%.
For `CCS(=O)(=O)c1cc(C(C)(C)C#N)cnc1-c1cn2ccc(C(F)(F)F)cc2n1` [Compound P9, 2-[5-ethylsulfonyl-6-[7-(trifluoromethyl)imidazo[1,2-a]pyridin-2-yl]-3-pyridyl]-2-methyl-propanenitrile], the percent control (mortality, anti-feedant effect or growth inhibition) at 200 ppm in the experiment with Spodoptera littoralis is ≥ 80%. Moreover, the percent effect (mortality or growth inhibition) at 200 ppm with Plutella xylostella and in the experiment on Diabrotica balteata was ≥ 80% each time. The mortality at 200 ppm with Myzus persicae [1] and in the experiment on Tetranychus urticae was ≥ 80% in each case.
Regarding `CCSc1cc(C(C)(C)C#N)cnc1-c1nc2cc(C(F)(F)F)n(CC(F)(F)F)c(=O)c2n1C` [Compound P10, 2-[5-ethylsulfanyl-6-[3-methyl-4-oxo-5-(2,2,2-trifluoroethyl)-6-(trifluoromethyl)imidazo[4,5-c]pyridin-2-yl]-3-pyridyl]-2-methyl-propanenitrile], the percent effect (mortality or growth inhibition) at 200 ppm with Plutella xylostella and in the experiment with Diabrotica balteata was ≥ 80% in each case. For the same molecule, the mortality at 200 ppm in the experiment with Myzus persicae [1] and in the experiment with Bemisia tabaci was ≥ 80% throughout.
Consider `CCn1c(C(F)(F)F)cc2nc(-c3ccc(C(C)(C)C#N)cc3S(=O)(=O)CC)n(C)c2c1=O` [Compound P13, 2-[4-[5-ethyl-3-methyl-4-oxo-6-(trifluoromethyl)imidazo[4,5-c]pyridin-2-yl]-3-ethylsulfonyl-phenyl]-2-methyl-propanenitrile], for which the percent control (mortality, anti-feedant effect or growth inhibition) at 200 ppm with Spodoptera littoralis is ≥ 80%. Also, the percent effect (mortality or growth inhibition) at 200 ppm in the experiment with Plutella xylostella and in the experiment on Diabrotica balteata was ≥ 80% throughout. The mortality at 200 ppm in the experiment on Bemisia tabaci was ≥ 80%.
As to `CCS(=O)(=O)c1cc(C(C)(C)C#N)cnc1-c1cn2cnc(SC(F)F)cc2n1` [Compound P14, 2-[6-[7-(difluoromethylsulfanyl)imidazo[1,2-c]pyrimidin-2-yl]-5-ethylsulfonyl-3-pyridyl]-2-methyl-propanenitrile], the percent control (mortality, anti-feedant effect or growth inhibition) at 200 ppm in the experiment on Spodoptera littoralis was ≥ 80%. Also, the percent effect (mortality or growth inhibition) at 200 ppm in the experiment with Plutella xylostella, in the experiment on Diabrotica balteata and in the experiment on Euschistus heros was ≥ 80% throughout. Moreover, the mortality at 200 ppm in the experiment on Myzus persicae [1] and in the experiment on Bemisia tabaci was ≥ 80% throughout.
Regarding `CCS(=O)(=O)c1cc(C(C)(C)C#N)cnc1-c1cn2cnc(S(=O)(=O)C(F)F)cc2n1` [Compound P15, 2-[6-[7-(difluoromethylsulfonyl)imidazo[1,2-c]pyrimidin-2-yl]-5-ethylsulfonyl-3-pyridyl]-2-methyl-propanenitrile], in the experiment with Plutella xylostella, the percent effect (mortality or growth inhibition) at 200 ppm is ≥ 80%. Further, the mortality at 200 ppm in the experiment on Myzus persicae [1] is ≥ 80%. The mortality at 24 ppm in the experiment on Myzus persicae [2] was ≥ 80%.
With `CCS(=O)(=O)c1cc(C(C)(C)C#N)cnc1-c1cn2cnc([S+]([O-])C(F)F)cc2n1` (stereo not drawn) [Compound P16, 2-[6-[7-(difluoromethylsulfinyl)imidazo[1,2-c]pyrimidin-2-yl]-5-ethylsulfonyl-3-pyridyl]-2-methyl-propanenitrile], in the experiment with Plutella xylostella, the percent effect (mortality or growth inhibition) at 200 ppm is ≥ 80%. Also, in the experiment on Myzus persicae [1], the mortality at 200 ppm is ≥ 80%. Also, the mortality at 24 ppm in the experiment on Myzus persicae [2] was ≥ 80%.
Consider `CCSc1cc(C(C)(C)C#N)cnc1-c1nc2cc(C(F)(F)F)n(C3CC3)c(=O)c2n1C` [Compound P18, 2-[6-[5-cyclopropyl-3-methyl-4-oxo-6-(trifluoromethyl)imidazo[4,5-c]pyridin-2-yl]-5-ethylsulfanyl-3-pyridyl]-2-methyl-propanenitrile], for which the percent control (mortality, anti-feedant effect or growth inhibition) at 200 ppm with Spodoptera littoralis is ≥ 80%. Moreover, the percent effect (mortality or growth inhibition) at 200 ppm with Plutella xylostella and in the experiment on Diabrotica balteata was ≥ 80% throughout. Moreover, the mortality at 200 ppm with Myzus persicae [1] and with Tetranychus urticae was ≥ 80% throughout.
`CCS(=O)(=O)c1cc(C(C)(C)C#N)ccc1-c1cn2ccc(C(F)(F)F)cc2n1` [Compound P19, 2-[3-ethylsulfonyl-4-[7-(trifluoromethyl)imidazo[1,2-a]pyridin-2-yl]phenyl]-2-methyl-propanenitrile]: the percent control (mortality, anti-feedant effect or growth inhibition) at 200 ppm in the experiment with Spodoptera littoralis is ≥ 80%. Also, the percent effect (mortality or growth inhibition) at 200 ppm with Plutella xylostella and with Diabrotica balteata was ≥ 80% in each case. The mortality at 200 ppm in the experiment with Bemisia tabaci is ≥ 80%.
On to `CCS(=O)(=O)c1cc(C(C)(C)C#N)ccc1-c1cn2cnc(C(F)(F)F)cc2n1` [Compound P20, 2-[3-ethylsulfonyl-4-[7-(trifluoromethyl)imidazo[1,2-c]pyrimidin-2-yl]phenyl]-2-methyl-propanenitrile], for which the percent effect (mortality or growth inhibition) at 200 ppm in the experiment on Plutella xylostella and in the experiment with Diabrotica balteata was ≥ 80% in each case. The mortality at 200 ppm in the experiment on Myzus persicae [1] and in the experiment with Bemisia tabaci was ≥ 80% each time.
Molecule `CCS(=O)(=O)c1cc(C2(C#N)CC2)cnc1-c1cn2cnc(C(F)(F)F)cc2n1` [reference compound] yielded a mortality at 12.5 ppm with Myzus persicae [1] of 0%. Moreover, the mortality at 6 ppm in the experiment on Myzus persicae [2] came to 0%. The same molecule gave a mortality at 0.8 ppm in the experiment with Euschistus heros of 0%.
